Among the test systems are SNB-75 CNS; HL-60(TB) leukemia; SNB-19 CNS; CCRF-CEM leukemia; SR leukemia; CAKI-1 renal; OVCAR-5 ovarian; UACC-257 melanoma; NCI-H23 lung; SF-539 CNS.
What all share (experiment): NCI tumour cell line growth inhibition, 48 h

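Step 1: Grow cells in 96-well plates. Step 2: Expose to compound for 48 hours at 5 concentrations. Step 3: Interpolate endpoints linearly; if unreached, use highest concentration. TGI denotes the concentration required for complete inhibition of growth.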

Turning to `O=c1[nH]nc(Cc2ccc(Cl)cc2)n1/N=C/c1c[nH]c2ccccc12`, the TGI in the assay on SNB-75 CNS, in the assay with HL-60(TB) leukemia, with SNB-19 CNS, with CCRF-CEM leukemia, in the assay on SR leukemia and in the assay on CAKI-1 renal was > 100 µM in each case. The TGI with OVCAR-5 ovarian, in the assay on UACC-257 melanoma, with NCI-H23 lung and in the assay with SF-539 CNS was > 100 µM in each case.
For the compound `Cn1cnc(SC2=C3C(=O)C=C4S[C@H]5C[C@]42c2c(c(O)c4c6c2=[N+]3CCC=6C=N4)N5)c1CC(N)C(=O)O` (stereo not given in full), the TGI in the assay on SNB-75 CNS came to 34.1 µM; with HL-60(TB) leukemia, 38.8 µM; in the assay on SNB-19 CNS, 32 µM; in the assay with CCRF-CEM leukemia, 45.9 µM; with SR leukemia, 48.8 µM; with CAKI-1 renal, 79.1 µM. Further, the TGI is 28.5 µM in the assay on OVCAR-5 ovarian, 29.9 µM in the assay with UACC-257 melanoma, 23.8 µM in the assay on NCI-H23 lung and 31.8 µM in the assay on SF-539 CNS.
On to `COc1ccc(Cn2c3ccc([N+](=O)[O-])cc3c(=O)n2Cc2ccccn2)cc1`, for which the TGI is > 100 µM in the assay on SNB-75 CNS; 75.1 µM with HL-60(TB) leukemia; > 100 µM in the assay with SNB-19 CNS; > 100 µM in the assay on CCRF-CEM leukemia; > 100 µM in the assay on SR leukemia; > 100 µM in the assay on CAKI-1 renal. In addition, the TGI in the assay on OVCAR-5 ovarian, in the assay on UACC-257 melanoma, in the assay with NCI-H23 lung and in the assay on SF-539 CNS was > 100 µM each time.
On to `Nc1ccccc1OCCCOc1ccccc1N`, for which the TGI with SNB-75 CNS, with HL-60(TB) leukemia, in the assay with SNB-19 CNS, in the assay with CCRF-CEM leukemia, in the assay with SR leukemia and in the assay with CAKI-1 renal was > 100 µM throughout. Further, the TGI with OVCAR-5 ovarian, in the assay on UACC-257 melanoma, with NCI-H23 lung and in the assay with SF-539 CNS was > 100 µM each time.
Take `COc1cc(S(=O)(=O)Nc2ccc(-c3csc(N4C(=O)C(C)SC4c4ccccc4)n3)cc2)ccc1Cl` (stereo not given): the TGI in the assay on SNB-75 CNS was 32.7 µM; in the assay on HL-60(TB) leukemia, 47.7 µM; in the assay with SNB-19 CNS it was > 100 µM; with CCRF-CEM leukemia, > 100 µM; in the assay with SR leukemia, > 100 µM; in the assay on CAKI-1 renal, > 100 µM. In addition, the TGI with OVCAR-5 ovarian, with UACC-257 melanoma, with NCI-H23 lung and with SF-539 CNS was > 100 µM throughout.
For the compound `CC(C)C1=C(Cc2ccccc2)C(=O)O/C1=C\c1ccc(O)c(Cl)c1`, the TGI was determined as 30.6 µM with SNB-75 CNS; 37.7 µM in the assay on HL-60(TB) leukemia; 33.7 µM with SNB-19 CNS; 46.8 µM in the assay on CCRF-CEM leukemia; 26.9 µM with SR leukemia; 32.9 µM with CAKI-1 renal. For the same compound, the TGI in the assay with OVCAR-5 ovarian was 32.3 µM; with UACC-257 melanoma, 32.8 µM; with NCI-H23 lung, 25.8 µM; with SF-539 CNS it was 33.2 µM.
Consider `N#Cc1ccc2[nH]c3c(c2c1)CC(=O)Nc1ccccc1-3`, for which the TGI in the assay with SNB-75 CNS, with HL-60(TB) leukemia, in the assay on SNB-19 CNS, in the assay with CCRF-CEM leukemia, in the assay on SR leukemia and in the assay on CAKI-1 renal was > 100 µM each time. The TGI in the assay on OVCAR-5 ovarian, in the assay on UACC-257 melanoma, in the assay with NCI-H23 lung and in the assay with SF-539 CNS was > 100 µM throughout.
On to `CCN(CC)C1Oc2cc3c(cc2C(c2cccc(OC)c2O)C1C)OCO3` (stereo not given), for which the TGI came out at 23.1 µM with SNB-75 CNS; 7.18 µM in the assay on HL-60(TB) leukemia; 31.4 µM in the assay with SNB-19 CNS; 16.3 µM with CCRF-CEM leukemia; 25.3 µM in the assay with SR leukemia; 27 µM in the assay with CAKI-1 renal. Moreover, the TGI in the assay with OVCAR-5 ovarian is 48.5 µM; in the assay on UACC-257 melanoma, > 50.4 µM; with NCI-H23 lung, 43.5 µM; in the assay with SF-539 CNS, 6.3 µM.
Regarding `N#Cc1ccc(C2Oc3ccc(Cl)cc3C=C2[N+](=O)[O-])cc1` (stereo not given), the TGI in the assay on SNB-75 CNS came to 2.83 µM; in the assay on HL-60(TB) leukemia, 3.91 µM; in the assay with SNB-19 CNS it was 6.58 µM; with CCRF-CEM leukemia, 1.03 µM; with SR leukemia, 1.61 µM; in the assay on CAKI-1 renal, 2.96 µM. The TGI in the assay with OVCAR-5 ovarian is 3.98 µM; with UACC-257 melanoma it was 6.75 µM; with NCI-H23 lung it was 3.23 µM; in the assay with SF-539 CNS it was 3.84 µM.
On to `O=C1c2cccnc2-c2nccc3c2c1nc1ccc(Br)cc13`, for which the TGI is 0.595 µM in the assay on SNB-75 CNS; 0.0377 µM in the assay with HL-60(TB) leukemia; 0.295 µM in the assay with SNB-19 CNS; 0.133 µM in the assay with CCRF-CEM leukemia; 0.0372 µM in the assay on SR leukemia; 0.156 µM in the assay on CAKI-1 renal. Further, the TGI turned out to be 0.324 µM with OVCAR-5 ovarian, 0.169 µM with UACC-257 melanoma, 0.12 µM with NCI-H23 lung and 0.141 µM with SF-539 CNS.

Values taken from PubChem BioAssay (NCI).
